Measured values published in the supplement of paper PMC5908809.

Legend:
[1] = test system: normal NK cells expanded with K562-aAPC; experiment: percent inhibition of viability; higher = more inhibition; settings: 72 h, IL-2 2.5 ng/mL
Procedure: (§1)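 Drug sensitivity and resistance testing on K562-aAPC-expanded normal NK cells: 5 concentrations (10-fold steps over a 10,000-fold range), 72 h at 37 °C, viability by CellTiter-Glo normalised to DMSO and benzethonium chloride controls; DSS from the fitted curve.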

DERL-7 (IL-2 2.5 ng/mL) [2] = experiment: as above; settings: 72 h
IMC-1 (IL-2 20 ng/mL) [3] = experiment: as above; settings: 72 h
KAI3 (IL-2 2.5 ng/mL) [4] = experiment: as above; settings: 72 h
KHYG-1 (IL-2 2.5 ng/mL) [5] = experiment: as above; settings: 72 h
NK-92 (IL-2 2.5 ng/mL) [6] = experiment: as above; settings: 72 h
NK-YS (IL-2 2.5 ng/mL) [7] = experiment: as above; settings: 72 h
NKL (IL-2 2.5 ng/mL) [8] = experiment: as above; settings: 72 h
SNK-6 (IL-2 2.5 ng/mL) [9] = experiment: as above; settings: 72 h
YT (IL-2 2.5 ng/mL) [10] = experiment: as above; settings: 72 h
[11] = test system: normal primary NK cells, pool 1 (3 donors) (IL-2 2.5 ng/mL); experiment: as above; settings: 72 h
[12] = test system: normal primary NK cells, pool 1 (3 donors), resting (IL-2 0 ng/mL); experiment: as above; settings: 72 h
[13] = test system: normal primary NK cells, pool 2 (3 donors) (IL-2 2.5 ng/mL); experiment: as above; settings: 72 h
[14] = test system: normal primary NK cells, pool 3 (3 donors) (IL-2 2.5 ng/mL); experiment: as above; settings: 72 h
[15] = test system: normal NK cells expanded with K562-aAPC; experiment: drug sensitivity score (DSS) (DSS units); higher = more sensitive; extreme values may be limits of the assay; settings: 72 h; IL-2 2.5 ng/mL
Procedure: as §1

DERL-7 (IL-2 2.5 ng/mL) [16] = experiment: as above; settings: 72 h
IMC-1 (IL-2 20 ng/mL) [17] = experiment: as above; settings: 72 h
KAI3 (IL-2 2.5 ng/mL) [18] = experiment: as above; settings: 72 h
KHYG-1 (IL-2 2.5 ng/mL) [19] = experiment: as above; settings: 72 h
NK-92 (IL-2 2.5 ng/mL) [20] = experiment: as above; settings: 72 h
NK-YS (IL-2 2.5 ng/mL) [21] = experiment: as above; settings: 72 h
NKL (IL-2 2.5 ng/mL) [22] = experiment: as above; settings: 72 h
SNK-6 (IL-2 2.5 ng/mL) [23] = experiment: as above; settings: 72 h
YT (IL-2 2.5 ng/mL) [24] = experiment: as above; settings: 72 h
[25] = test system: normal primary NK cells, pool 1 (3 donors) (IL-2 2.5 ng/mL); experiment: as above; settings: 72 h
[26] = test system: normal primary NK cells, pool 1 (3 donors), resting (IL-2 0 ng/mL); experiment: as above; settings: 72 h
[27] = test system: normal primary NK cells, pool 2 (3 donors) (IL-2 2.5 ng/mL); experiment: as above; settings: 72 h
[28] = test system: normal primary NK cells, pool 3 (3 donors) (IL-2 2.5 ng/mL); experiment: as above; settings: 72 h

O=c1[nH]cc(F)c(=O)[nH]1 [Fluorouracil] (max concentration tested 10000 nM)
percent inhibition of viability [%]
Settings	1 nM	10 nM	100 nM	1000 nM	10000 nM
DERL-7 (IL-2 2.5 ng/mL) [2]	-1.71	-2.2	-3.46	5.05	60.8
IMC-1 (IL-2 20 ng/mL) [3]	-7.45	1.88	-3.48	4.56	12.9
KAI3 (IL-2 2.5 ng/mL) [4]	-0.14	3.84	8.25	42.8	49.3
KHYG-1 (IL-2 2.5 ng/mL) [5]	-4.58	-7.58	-3.77	12.7	86.4
NK-92 (IL-2 2.5 ng/mL) [6]	-11.2	1.29	5.09	42.9	60
NK-YS (IL-2 2.5 ng/mL) [7]	-1.75	0.12	4.17	40.3	84
NKL (IL-2 2.5 ng/mL) [8]	-15.3	-7.36	-0.39	28.1	74.8
SNK-6 (IL-2 2.5 ng/mL) [9]	-7.99	-14.1	-22.8	34.2	86.7
YT (IL-2 2.5 ng/mL) [10]	-7.37	-4.14	-1.13	39.8	64
[1]	-6.1	-8.86	-5.42	2.62	38.1
[11]	-1.01	15.2	8.55	0.37	11.4
[12]	2.96	13.7	16.1	21.9	19
[13]	1.43	2.09	10.1	5	7.54
[14]	-3.48	2.62	7.34	0.65	7.07

Settings	drug sensitivity score
DERL-7 (IL-2 2.5 ng/mL) [16]	4.1
IMC-1 (IL-2 20 ng/mL) [17]	0.36
KAI3 (IL-2 2.5 ng/mL) [18]	8.77
KHYG-1 (IL-2 2.5 ng/mL) [19]	6.91
NK-92 (IL-2 2.5 ng/mL) [20]	8.76
NK-YS (IL-2 2.5 ng/mL) [21]	9.4
NKL (IL-2 2.5 ng/mL) [22]	8.01
SNK-6 (IL-2 2.5 ng/mL) [23]	9.4
YT (IL-2 2.5 ng/mL) [24]	8.28
[15]	2.24
[25]	0
[26]	5.42
[27]	0
[28]	0

CNC(=O)c1cc(Oc2ccc(NC(=O)Nc3ccc(Cl)c(C(F)(F)F)c3)c(F)c2)ccn1 [Regorafenib] (max concentration tested 10000 nM)
percent inhibition of viability [%]
Settings	1 nM	10 nM	100 nM	1000 nM	10000 nM
DERL-7 (IL-2 2.5 ng/mL) [2]	2.39	2.44	-0.06	27.7	70.5
IMC-1 (IL-2 20 ng/mL) [3]	-4.09	-5.72	3.85	6.77	39.6
KAI3 (IL-2 2.5 ng/mL) [4]	-0.04	-3.7	-6.12	-2.83	85.1
KHYG-1 (IL-2 2.5 ng/mL) [5]	-1.86	-1.02	1.17	11.2	87.3
NK-92 (IL-2 2.5 ng/mL) [6]	0.49	12.1	12	37.9	85.7
NK-YS (IL-2 2.5 ng/mL) [7]	-1	-1.21	3.83	15.4	67
NKL (IL-2 2.5 ng/mL) [8]	-7.68	-18.9	-10.6	17.4	70.8
SNK-6 (IL-2 2.5 ng/mL) [9]	9.61	17.5	36.1	38.7	63.7
YT (IL-2 2.5 ng/mL) [10]	2	0.08	3.65	21.9	100
[1]	3.1	-1.28	-0.64	-2.22	19.1
[11]	-13.1	1.52	-11	1.66	79.7
[12]	6.64	8.24	-7.13	12.5	79.3
[13]	-10.1	-16.9	-7.59	12.1	61
[14]	-11.7	-13.3	-6.26	6.56	48.1

Settings	drug sensitivity score
DERL-7 (IL-2 2.5 ng/mL) [16]	7.66
IMC-1 (IL-2 20 ng/mL) [17]	3.09
KAI3 (IL-2 2.5 ng/mL) [18]	4.49
KHYG-1 (IL-2 2.5 ng/mL) [19]	6.71
NK-92 (IL-2 2.5 ng/mL) [20]	9.31
NK-YS (IL-2 2.5 ng/mL) [21]	6.12
NKL (IL-2 2.5 ng/mL) [22]	6.61
SNK-6 (IL-2 2.5 ng/mL) [23]	13.9
YT (IL-2 2.5 ng/mL) [24]	8.99
[15]	0.41
[25]	4.63
[26]	6.48
[27]	5.3
[28]	3.62

CNC(=O)c1ccc(N2C(=S)N(c3cnc(C#N)c(C(F)(F)F)c3)C(=O)C23CCC3)cc1F [ARN 509] (max concentration tested 10000 nM)
percent inhibition of viability [%]
Settings	1 nM	10 nM	100 nM	1000 nM	10000 nM
DERL-7 (IL-2 2.5 ng/mL) [2]	6.41	-1.09	-0.93	-13.3	-12.6
IMC-1 (IL-2 20 ng/mL) [3]	2.81	-1.31	5.83	9.26	16.9
KAI3 (IL-2 2.5 ng/mL) [4]	-2.56	-12.9	0.32	4.54	27.9
KHYG-1 (IL-2 2.5 ng/mL) [5]	-1.73	-3.05	1.87	8.59	9.64
NK-92 (IL-2 2.5 ng/mL) [6]	-3.11	-4.21	2.28	-1.18	23
NK-YS (IL-2 2.5 ng/mL) [7]	-3.22	-1.75	-0.61	1.75	15.7
NKL (IL-2 2.5 ng/mL) [8]	-5.58	-11.3	-0.18	-5.48	3.63
SNK-6 (IL-2 2.5 ng/mL) [9]	16.7	-1.7	14.6	33.1	24.3
YT (IL-2 2.5 ng/mL) [10]	2.58	2.98	4.62	0.81	10.2
[1]	0.72	1.64	2.47	20	14.2
[11]	-11.3	4.68	-6.94	-10.6	10.8
[12]	-0.17	11.7	-4.44	-10.2	15.5
[13]	-8.15	-8.75	-5.23	-6.28	8.97
[14]	-7.92	-6.67	-6.21	-10.2	3.54

Settings	drug sensitivity score
DERL-7 (IL-2 2.5 ng/mL) [16]	0
IMC-1 (IL-2 20 ng/mL) [17]	0.78
KAI3 (IL-2 2.5 ng/mL) [18]	1.88
KHYG-1 (IL-2 2.5 ng/mL) [19]	0
NK-92 (IL-2 2.5 ng/mL) [20]	0.72
NK-YS (IL-2 2.5 ng/mL) [21]	0.46
NKL (IL-2 2.5 ng/mL) [22]	0
SNK-6 (IL-2 2.5 ng/mL) [23]	7.62
YT (IL-2 2.5 ng/mL) [24]	0
[15]	3.05
[25]	0
[26]	0.11
[27]	0
[28]	0
